Results as given in the NIST ThermoML archive (doi:10.1016/j.jct.2007.05.011).

Experiment: xn = mol fraction of the nth substance listed
Settings: 101 kPa, Liquid; for mass density: Vibrating tube method

NCCO.O=CO [2-hydroxyethylammonium formate] + CCO
Settings | mass density, 308.15 K [kg/m3] | mass density, 310.65 K [kg/m3] | mass density, 313.15 K [kg/m3] | mass density, 315.65 K [kg/m3] | speed of sound, 305.65 K [m/s] | speed of sound, 308.15 K [m/s] | speed of sound, 310.65 K [m/s] | speed of sound, 313.15 K [m/s]
x2 = 0 | 1169.39 | 1167.62 | 1165.84 | 1164.06 | 1690.8 | 1684.8 | 1678.7 | 1672.7
x2 = 0.058 | 1159.76 | 1158.11 | 1156.45 | 1154.81 | 1704.7 | 1699.5 | 1694.4 | 1689.2
x2 = 0.098 | 1147.72 | 1146.06 | 1144.4 | 1142.73 | 1685.5 | 1680.2 | 1674.9 | 1669.8
x2 = 0.193 | 1122.18 | 1120.49 | 1118.8 | 1117.11 | 1642.7 | 1637.3 | 1631.8 | 1626.3
x2 = 0.296 | 1096.28 | 1094.56 | 1092.84 | 1091.12 | 1598.7 | 1593 | 1587.4 | 1581.7
x2 = 0.399 | 1065.47 | 1063.71 | 1061.95 | 1060.19 | 1545.2 | 1539.2 | 1533.3 | 1527.4
x2 = 0.5 | 1030.18 | 1028.38 | 1026.57 | – | 1485.4 | 1479.2 | 1473 | 1466.8
x2 = 0.598 | 991.781 | 989.927 | 988.066 | – | 1421.8 | 1415.2 | 1408.7 | 1402.2
x2 = 0.701 | 948.127 | 946.21 | 944.29 | – | 1353.1 | 1346.1 | 1339.3 | 1332.3
x2 = 0.799 | 898.707 | 896.716 | 894.718 | – | 1281.3 | 1274 | 1266.7 | 1259.3
x2 = 0.9 | 842.788 | 840.709 | 838.621 | – | 1206.1 | 1198.3 | 1190.5 | 1182.7
x2 = 0.95 | 811.783 | 809.653 | 807.511 | – | 1165.7 | 1157.6 | 1149.5 | 1141.4
